As a reminder, the IC50 is the midpoint of a concentration-inhibition curve.

The results in this text go back to patent US10781181B2, “N-((het) arylmethyl)-heteroaryl-carboxamides compounds as plasma kallikrein inhibitors” (Kalvista Pharmaceuticals Limited, priority 2014, dated 2020).

One assay deals with Human plasma kallikrein (Homo sapiens (Human), UniProt P03952). Description: Determination of the IC50 for plasma kallikrein. The settings on record: read-out: IC50 (human PKal). Format: biochemical. Here is the method:
Determination of the IC50 for Plasma Kallikrein
Human plasma kallikrein (Protogen) was incubated at 25° C. with the fluorogenic substrate H-DPro-Phe-Arg-AFC and various concentrations of the test compound. Residual enzyme activity (initial rate of reaction) was determined by measuring the change in […] at 410 nm and the IC50 value for the test compound was determined.

For another assay, the target named is Human KLK1 (Homo sapiens (Human), UniProt P06870). Description: Determination of the IC50 for KLK1. The assay is classed as biochemical. The settings on record: human KLK1, 25° C., substrate H-DVal-Leu-Arg-AFC. On the procedure: Determination of the IC50 for KLK1
Sequence of Human KLK1 (P06870 25-262): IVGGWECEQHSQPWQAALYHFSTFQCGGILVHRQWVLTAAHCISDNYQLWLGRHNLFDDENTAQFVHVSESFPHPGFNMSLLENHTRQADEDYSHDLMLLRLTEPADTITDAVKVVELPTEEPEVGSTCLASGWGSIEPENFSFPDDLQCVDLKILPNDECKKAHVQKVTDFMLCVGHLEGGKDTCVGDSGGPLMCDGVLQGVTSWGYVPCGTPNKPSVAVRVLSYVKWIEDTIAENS
Human KLK1 (Callbiochem) was incubated at 25° C. with the fluorogenic substrate H-DVal-Leu-Arg-AFC and various concentrations of the test compound. Residual enzyme activity (initial rate of reaction) was determined by measuring the change in […] at 410 nm and the IC50 value for the test compound was determined.

Sequence of Human plasma kallikrein (P03952 391-638): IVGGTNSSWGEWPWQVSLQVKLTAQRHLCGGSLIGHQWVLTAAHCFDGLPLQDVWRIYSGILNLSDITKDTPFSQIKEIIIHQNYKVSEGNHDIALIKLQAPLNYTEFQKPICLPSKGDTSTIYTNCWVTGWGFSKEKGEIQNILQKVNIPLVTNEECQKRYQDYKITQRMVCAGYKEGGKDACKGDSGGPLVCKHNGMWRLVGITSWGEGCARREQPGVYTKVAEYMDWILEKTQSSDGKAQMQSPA
Sequence of Human plasma kallikrein (P03952 20-390 partner): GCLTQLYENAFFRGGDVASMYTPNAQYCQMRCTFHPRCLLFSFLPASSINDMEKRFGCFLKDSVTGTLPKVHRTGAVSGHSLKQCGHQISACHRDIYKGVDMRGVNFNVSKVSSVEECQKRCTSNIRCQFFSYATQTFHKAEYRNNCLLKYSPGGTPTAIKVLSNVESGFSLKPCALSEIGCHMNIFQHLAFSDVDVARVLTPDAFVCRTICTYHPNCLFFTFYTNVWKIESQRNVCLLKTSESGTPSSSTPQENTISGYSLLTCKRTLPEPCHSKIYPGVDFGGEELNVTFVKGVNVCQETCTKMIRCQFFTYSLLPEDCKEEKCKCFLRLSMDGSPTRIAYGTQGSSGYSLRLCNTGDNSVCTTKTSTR

Turning to `Nc1nn(Cc2ccc(Cn3cc(F)ccc3=O)cc2)cc1C(=O)NCCOc1cccc(Cl)c1` [Example 100, 3-amino-N-[2-(3-chlorophenoxy)ethyl]-1-({4-[(5-fluoro-2-oxopyridin-1-yl)methyl]phenyl}methyl)pyrazole-4-carboxamide], the figures for the IC50 at Human plasma kallikrein and on Human KLK1 were 0.0062 µM and above 40 µM, respectively.
`Nc1nn(Cc2ccc(Cn3ccccc3=O)cc2)cc1C(=O)NCC(=O)Nc1ccc(Cl)cc1` [Example 4, 2-{[3-amino-1-({4-[(2-oxopyridin-1-yl)methyl]phenyl}methyl)pyrazol-4-yl]formamido}-N-(4-chlorophenyl)acetamide]: the half-maximal inhibitory concentration (IC50) on Human plasma kallikrein and against Human KLK1 was above 10 µM each time.
For `CN(CC(=O)O)c1cc(Cn2cc(C(=O)NCCOc3cccc(Cl)c3)c(N)n2)ccn1` [Example 67, ({4-[(3-amino-4-{[2-(3-chlorophenoxy)ethyl]carbamoyl}pyrazol-1-yl)methyl]pyridin-2-yl}(methyl)amino)acetic acid], the values for the half-inhibitory concentration (IC50) at Human plasma kallikrein and against Human KLK1 were above 10 µM and above 40 µM, respectively.
With `CNC(=O)c1cccc(Cn2cc(C(=O)NCCOc3cccc(Cl)c3)c(N)n2)c1` [Example 64, 3-amino-N-[2-(3-chlorophenoxy)ethyl]-1-{[3-(methylcarbamoyl)phenyl]methyl}pyrazole-4-carboxamide], the figures for the half-maximal inhibitory concentration (IC50) at Human plasma kallikrein and against Human KLK1 were above 10 µM and above 40 µM, respectively.
On the same counts, the results for `Nc1nn(Cc2ccc(C(=O)N3CCCCC3)cc2)cc1C(=O)NCCOc1cccc(Cl)c1` [Example 60, 3-amino-N-[2-(3-chlorophenoxy)ethyl]-1-({4-[(piperidin-1-yl)carbonyl]phenyl}methyl)pyrazole-4-carboxamide] are above 10 µM and above 40 µM.
On to `Cc1nn(Cc2ccc(Cn3ccccc3=O)cc2)c(C)c1C(=O)NCCOc1cccc(Cl)c1` [Example 103, N-[2-(3-chlorophenoxy)ethyl]-3,5-dimethyl-1-({4-[(2-oxopyridin-1-yl)methyl]phenyl}methyl)pyrazole-4-carboxamide], for which the IC50 is above 10 µM on Human plasma kallikrein and above 40 µM at Human KLK1.
Regarding `Nc1nn(Cc2ccc(N3CCCC3=O)nc2)cc1C(=O)NCCOc1cccc(Cl)c1` [Example 96, 3-amino-N-[2-(3-chlorophenoxy)ethyl]-1-{[6-(2-oxopyrrolidin-1-yl)pyridin-3-yl]methyl}pyrazole-4-carboxamide], the results for the 50% inhibitory concentration (IC50) on Human plasma kallikrein and at Human KLK1 were 2.23 µM and above 40 µM, respectively.
With `CC(CNC(=O)c1cn(Cc2ccc(Cn3ccccc3=O)cc2)nc1N)Oc1cccc(Cl)c1` (racemic) [Example 118, 3-amino-N-[(2R/S)-2-(3-chlorophenoxy)propyl]-1-({4-[(2-oxopyridin-1-yl)methyl]phenyl}methyl)pyrazole-4-carboxamide], the results for the IC50 at Human plasma kallikrein and against Human KLK1 were 0.0133 µM and above 40 µM, respectively.
For the molecule `Cc1nc(C(=O)NCCOc2cccc(Cl)c2)cn1Cc1ccc(Cn2ccccc2=O)cc1` [Example 43, N-[2-(3-chlorophenoxy)ethyl]-2-methyl-1-({4-[(2-oxopyridin-1-yl)methyl]phenyl}methyl)imidazole-4-carboxamide], the half-maximal inhibitory concentration (IC50) at Human plasma kallikrein is 0.077 µM; against Human KLK1, above 10 µM.
On the same counts, the results for `Nc1nn(Cc2ccnc(N3CCCC3=O)c2)cc1C(=O)NCCOc1cccc(Cl)c1` [Example 94, 3-amino-N-[2-(3-chlorophenoxy)ethyl]-1-{[2-(2-oxopyrrolidin-1-yl)pyridin-4-yl]methyl}pyrazole-4-carboxamide] are 3.14 µM and above 40 µM.
On the same counts, the results for `Nc1nn(Cc2ccc(-c3cccnc3)nc2)cc1C(=O)NCCOc1cccc(Cl)c1` [Example 97, 3-amino-N-[2-(3-chlorophenoxy)ethyl]-1-{[6-(pyridin-3-yl)pyridin-3-yl]methyl}pyrazole-4-carboxamide] are 1.13 µM and above 40 µM.
On the same counts, the results for `Nc1nn(Cc2cccc(Cl)n2)cc1C(=O)NCCOc1cccc(Cl)c1` [Example 81, 3-amino-N-[2-(3-chlorophenoxy)ethyl]-1-[(6-chloropyridin-2-yl)methyl]pyrazole-4-carboxamide] are above 10 µM and above 40 µM.
On to `COCc1nn(Cc2ccc(Cn3ccc(C)cc3=O)cc2)cc1C(=O)NCCOc1cccc(Cl)c1` [Example 104, N-[2-(3-chlorophenoxy)ethyl]-3-(methoxymethyl)-1-({4-[(4-methyl-2-oxopyridin-1-yl)methyl]phenyl}methyl)pyrazole-4-carboxamide], for which the concentration for half-maximal inhibition (IC50) is 0.413 µM on Human plasma kallikrein and above 40 µM against Human KLK1.
For `COCc1nn(Cc2ccc(Cn3ccccc3=O)cc2)cc1C(=O)NCCOc1cc(Cl)cc(OC)c1` [Example 11, N-[2-(3-chloro-5-methoxyphenoxy)ethyl]-3-(methoxymethyl)-1-({4-[(2-oxopyridin-1-yl)methyl]phenyl}methyl)pyrazole-4-carboxamide], the IC50 on Human plasma kallikrein and against Human KLK1 was above 10 µM throughout.
Consider `N#Cc1nn(Cc2ccc(Cn3ccccc3=O)cc2)cc1C(=O)NCCOc1cccc(Cl)c1` [Example 38, N-[2-(3-chlorophenoxy)ethyl]-3-cyano-1-({4-[(2-oxopyridin-1-yl)methyl]phenyl}methyl)pyrazole-4-carboxamide], for which the IC50 on Human plasma kallikrein was 0.0065 µM; against Human KLK1, above 40 µM.
The corresponding values for `Nc1nn(Cc2ccc(Cn3c(F)cccc3=O)cc2)cc1C(=O)NCCOc1cccc(Cl)c1` [Example 99, 3-amino-N-[2-(3-chlorophenoxy)ethyl]-1-({4-[(2-fluoro-6-oxopyridin-1-yl)methyl]phenyl}methyl)pyrazole-4-carboxamide] are 2.07 µM and above 40 µM.
On the same counts, the results for `Nc1nn(Cc2cccc(C(=O)O)c2)cc1C(=O)NCCOc1cccc(Cl)c1` [Example 63, 3-[(3-amino-4-{[2-(3-chlorophenoxy)ethyl]carbamoyl}pyrazol-1-yl)methyl]benzoic acid] are above 10 µM and above 40 µM.
On to `Nc1c(C(=O)NCCOc2cccc(Cl)c2)cnn1Cc1ccc(C(=O)N2CCCC2)cc1` [Example 45, 5-amino-N-[2-(3-chlorophenoxy)ethyl]-1-({4-[(pyrrolidin-1-yl)carbonyl]phenyl}methyl)pyrazole-4-carboxamide], for which the half-inhibitory concentration (IC50) was 6.25 µM on Human plasma kallikrein and above 40 µM against Human KLK1.
Regarding `CN(C)C(=O)c1ccc(Cn2cc(C(=O)NCCOc3cccc(Cl)c3)c(N)n2)cc1` [Example 59, 3-amino-N-[2-(3-chlorophenoxy)ethyl]-1-{[4-(dimethylcarbamoyl)phenyl]methyl}pyrazole-4-carboxamide], the IC50 was above 10 µM on Human plasma kallikrein and above 40 µM against Human KLK1.
On the same counts, the results for `COc1cc(Cn2cc(C(=O)NCCOc3cccc(Cl)c3)c(N)n2)ccc1Cn1ccccc1=O` [Example 98, 3-amino-N-[2-(3-chlorophenoxy)ethyl]-1-({3-methoxy-4-[(2-oxopyridin-1-yl)methyl]phenyl}methyl)pyrazole-4-carboxamide] are 0.0094 µM and above 40 µM.
Take `Nc1c(C(=O)NCCOc2cccc(Cl)c2)cnn1Cc1ccc2[nH]ncc2c1` [Example 44, 5-amino-N-[2-(3-chlorophenoxy)ethyl]-1-(1H-indazol-5-ylmethyl)pyrazole-4-carboxamide]: the results for the half-inhibitory concentration (IC50) at Human plasma kallikrein and against Human KLK1 were above 10 µM and above 40 µM, respectively.
